# Earlier results in patent US20190298786A1, “EXTRACTS OF SAUDI ARABIAN HERBAL PLANTS, ANTI-CANCER METHOD USING SUCH EXTRACTS, AND CYTOLOGICAL PROFILING USING AUTOMATED HIGH-CONTENT IMAGING TECHNIQUE” (King Abdullah University of Science and Technology, priority 2016, published 2019).
# Experiments:
# [1] = system: human cervical cancer (HOG-1) cell; details: HOG-1 cells, different concentrations
Structure (SMILES),IC50 (cytotoxic effects) (MCF7 cells) [µg/mL],IC50 (cytotoxic effects) (KB cells) [µg/mL],IC50 (cytotoxic effects) (CasKi cells) [µg/mL],effect on cell growth and DNA synthesis [1]
"CC(C)(C)c1ccc(O)c(C(C)(C)C)c1 [2,4-ditert-butylphenol]",5.75,0.81,4.5,
"CCCCCCCCCCCCCCCCCC(=O)O [stearic acid, Stearic acid]",,,,inhibited
